From ChEMBL document CHEMBL1944624, “Synthesis and antimalarial and antituberculosis activities of a series of natural and unnatural 4-methoxy-6-styryl-pyran-2-ones, dihydro analogues and photo-dimers” (Bioorg Med Chem, 2012)

tested on: Plasmodium falciparum; test: microbe, parasite or virus in culture; assay type: functional, organism-based; settings: K1
Description: Antiprotozoal activity against erythrocytic stages chloroquine- and pyrimethamine-resistant Plasmodium falciparum K1 assessed as inhibition of [3H]hypoxanthine incorporation pre-incubated for 48 hrs prior [3H]hypoxanthine addition measured after 24 hrs by liquid scintillation counting

Row | Compound | IC50 [µM]
1 | COc1cc(CCc2ccc(OC)c(OC)c2)oc(=O)c1 | > 17
2 | COc1cc(CCc2cccc(Oc3ccc(C(C)(C)C)cc3)c2)oc(=O)c1 | 7.2
3 | COc1cc(CCc2cccc3ccccc23)oc(=O)c1 | > 18
4 | COc1cc(CCc2ccc3ccccc3c2)oc(=O)c1 | 16
5 | COc1cc(CCc2ccc(CCc3cc(OC)cc(=O)o3)cc2)oc(=O)c1 | 3.6
6 | COc1cc(=O)oc([C@H]2[C@H](c3ccc(OC)c(OC)c3)[C@H](c3cc(OC)cc(=O)o3)[C@H]2c2ccc(OC)c(OC)c2)c1 | 3.1
7 | COc1cc(=O)oc([C@H]2[C@H](c3ccc4ccccc4c3)[C@H](c3cc(OC)cc(=O)o3)[C@H]2c2ccc3ccccc3c2)c1 | 2.3
8 | COc1cc([C@@H]2[C@@H](c3ccccc3)[C@@H](c3ccccc3)[C@@H]2c2cc(OC)cc(=O)o2)oc(=O)c1 | 3.8
9 | COC1=CC(=O)O[C@]2(/C=C/c3ccc(C(C)(C)C)cc3)[C@H]1[C@H](c1ccc(C(C)(C)C)cc1)[C@H]2c1cc(OC)cc(=O)o1 (racemic) | 1.7
10 | COC1=CC(=O)O[C@]2(/C=C/c3cccc(Oc4ccc(C(C)(C)C)cc4)c3)[C@H]1[C@H](c1cccc(Oc3ccc(C(C)(C)C)cc3)c1)[C@H]2c1cc(OC)cc(=O)o1 (racemic) | 4.4
11 | COC1=CC(=O)O[C@]2(/C=C/c3ccccc3)[C@H]1[C@H](c1ccccc1)[C@H]2c1cc(OC)cc(=O)o1 (relative stereo) | 7.1
12 | COC1=CC(=O)O[C@]2(/C=C/c3ccc(OC)c(OC)c3)[C@H]1[C@H](c1ccc(OC)c(OC)c1)[C@H]2c1cc(OC)cc(=O)o1 (relative stereo) | 1.5
13 | COc1cc(/C=C/c2ccccc2)oc(=O)c1 [DESMETHOXYYANGONIN] | 13
14 | COc1cc(CCc2ccccc2)oc(=O)c1 [DIHYDRO-5,6-DEHYDROKAWAIN] | > 22

tested on: Leishmania donovani; test: Antiprotozoal activity against Leishmania donovani MHOM/ET/67/L82 axenic amastigotes after 72 hrs by alamar blue assay; assay type: functional, organism-based; settings: MHOM/ET/67/L82, 72 h

Row | Compound | IC50 [µM]
15 | COc1cc(CCc2ccc(OC)c(OC)c2)oc(=O)c1 | 270
16 | COc1cc(CCc2cccc(Oc3ccc(C(C)(C)C)cc3)c2)oc(=O)c1 | 15
17 | COc1cc(CCc2cccc3ccccc23)oc(=O)c1 | 55
18 | COc1cc(CCc2ccc3ccccc3c2)oc(=O)c1 | 42
19 | COc1cc(CCc2ccc(CCc3cc(OC)cc(=O)o3)cc2)oc(=O)c1 | > 240
20 | COc1cc(=O)oc([C@H]2[C@H](c3ccc(OC)c(OC)c3)[C@H](c3cc(OC)cc(=O)o3)[C@H]2c2ccc(OC)c(OC)c2)c1 | 75
21 | COc1cc(=O)oc([C@H]2[C@H](c3ccc4ccccc4c3)[C@H](c3cc(OC)cc(=O)o3)[C@H]2c2ccc3ccccc3c2)c1 | 10
22 | COc1cc([C@@H]2[C@@H](c3ccccc3)[C@@H](c3ccccc3)[C@@H]2c2cc(OC)cc(=O)o2)oc(=O)c1 | 17
23 | COC1=CC(=O)O[C@]2(/C=C/c3ccc(C(C)(C)C)cc3)[C@H]1[C@H](c1ccc(C(C)(C)C)cc1)[C@H]2c1cc(OC)cc(=O)o1 (racemic) | 4.5
24 | COC1=CC(=O)O[C@]2(/C=C/c3cccc(Oc4ccc(C(C)(C)C)cc4)c3)[C@H]1[C@H](c1cccc(Oc3ccc(C(C)(C)C)cc3)c1)[C@H]2c1cc(OC)cc(=O)o1 (racemic) | 66
25 | COC1=CC(=O)O[C@]2(/C=C/c3ccccc3)[C@H]1[C@H](c1ccccc1)[C@H]2c1cc(OC)cc(=O)o1 (relative stereo) | 27
26 | COC1=CC(=O)O[C@]2(/C=C/c3ccc(OC)c(OC)c3)[C@H]1[C@H](c1ccc(OC)c(OC)c1)[C@H]2c1cc(OC)cc(=O)o1 (relative stereo) | 79
27 | COc1cc(/C=C/c2ccccc2)oc(=O)c1 [DESMETHOXYYANGONIN] | 190
28 | COc1cc(CCc2ccccc2)oc(=O)c1 [DIHYDRO-5,6-DEHYDROKAWAIN] | 190
29 | CCCCCCCCCCCCCCCCOP(=O)([O-])OCC[N+](C)(C)C [MILTEFOSINE] | 0.5

tested on: Trypanosoma cruzi; test: Antiprotozoal activity against Trypanosoma cruzi Tulahuen C2C4 amastigotes infected in rat L6 myoblasts after 96 hrs by CPRG/Nonidet-based spectrophotometry; assay type: functional, organism-based; settings: Tulahuen C2C4, L6, 96 h

Row | Compound | IC50 [µM]
30 | COc1cc(CCc2ccc(OC)c(OC)c2)oc(=O)c1 | > 310
31 | COc1cc(CCc2cccc(Oc3ccc(C(C)(C)C)cc3)c2)oc(=O)c1 | 36
32 | COc1cc(CCc2cccc3ccccc23)oc(=O)c1 | 76
33 | COc1cc(CCc2ccc3ccccc3c2)oc(=O)c1 | 65
34 | COc1cc(CCc2ccc(CCc3cc(OC)cc(=O)o3)cc2)oc(=O)c1 | > 240
35 | COc1cc(=O)oc([C@H]2[C@H](c3ccc(OC)c(OC)c3)[C@H](c3cc(OC)cc(=O)o3)[C@H]2c2ccc(OC)c(OC)c2)c1 | 38
36 | COc1cc(=O)oc([C@H]2[C@H](c3ccc4ccccc4c3)[C@H](c3cc(OC)cc(=O)o3)[C@H]2c2ccc3ccccc3c2)c1 | 90
37 | COc1cc([C@@H]2[C@@H](c3ccccc3)[C@@H](c3ccccc3)[C@@H]2c2cc(OC)cc(=O)o2)oc(=O)c1 | 32
38 | COC1=CC(=O)O[C@]2(/C=C/c3ccc(C(C)(C)C)cc3)[C@H]1[C@H](c1ccc(C(C)(C)C)cc1)[C@H]2c1cc(OC)cc(=O)o1 (racemic) | 71
39 | COC1=CC(=O)O[C@]2(/C=C/c3cccc(Oc4ccc(C(C)(C)C)cc4)c3)[C@H]1[C@H](c1cccc(Oc3ccc(C(C)(C)C)cc3)c1)[C@H]2c1cc(OC)cc(=O)o1 (racemic) | > 120
40 | COC1=CC(=O)O[C@]2(/C=C/c3ccccc3)[C@H]1[C@H](c1ccccc1)[C@H]2c1cc(OC)cc(=O)o1 (relative stereo) | 28
41 | COC1=CC(=O)O[C@]2(/C=C/c3ccc(OC)c(OC)c3)[C@H]1[C@H](c1ccc(OC)c(OC)c1)[C@H]2c1cc(OC)cc(=O)o1 (relative stereo) | 130
42 | O=C(Cn1ccnc1[N+](=O)[O-])NCc1ccccc1 [BENZNIDAZOLE] | 1.4
43 | COc1cc(/C=C/c2ccccc2)oc(=O)c1 [DESMETHOXYYANGONIN] | 64
44 | COc1cc(CCc2ccccc2)oc(=O)c1 [DIHYDRO-5,6-DEHYDROKAWAIN] | 240

tested on: L6; test: Cytotoxicity against rat L6 myoblasts after 72 hrs by alamar blue assay; assay type: cell-based; settings: L6, 72 h

Row | Compound | IC50 [µM]
45 | COc1cc(CCc2ccc(OC)c(OC)c2)oc(=O)c1 | > 310
46 | COc1cc(CCc2cccc(Oc3ccc(C(C)(C)C)cc3)c2)oc(=O)c1 | 50
47 | COc1cc(CCc2cccc3ccccc23)oc(=O)c1 | 110
48 | COc1cc(CCc2ccc3ccccc3c2)oc(=O)c1 | 91
49 | COc1cc(CCc2ccc(CCc3cc(OC)cc(=O)o3)cc2)oc(=O)c1 | 50
50 | COc1cc(=O)oc([C@H]2[C@H](c3ccc(OC)c(OC)c3)[C@H](c3cc(OC)cc(=O)o3)[C@H]2c2ccc(OC)c(OC)c2)c1 | 22
51 | COc1cc(=O)oc([C@H]2[C@H](c3ccc4ccccc4c3)[C@H](c3cc(OC)cc(=O)o3)[C@H]2c2ccc3ccccc3c2)c1 | 95
52 | COc1cc([C@@H]2[C@@H](c3ccccc3)[C@@H](c3ccccc3)[C@@H]2c2cc(OC)cc(=O)o2)oc(=O)c1 | 51
53 | COC1=CC(=O)O[C@]2(/C=C/c3ccc(C(C)(C)C)cc3)[C@H]1[C@H](c1ccc(C(C)(C)C)cc1)[C@H]2c1cc(OC)cc(=O)o1 (racemic) | 130
54 | COC1=CC(=O)O[C@]2(/C=C/c3cccc(Oc4ccc(C(C)(C)C)cc4)c3)[C@H]1[C@H](c1cccc(Oc3ccc(C(C)(C)C)cc3)c1)[C@H]2c1cc(OC)cc(=O)o1 (racemic) | > 120
55 | COC1=CC(=O)O[C@]2(/C=C/c3ccccc3)[C@H]1[C@H](c1ccccc1)[C@H]2c1cc(OC)cc(=O)o1 (relative stereo) | > 200
56 | COC1=CC(=O)O[C@]2(/C=C/c3ccc(OC)c(OC)c3)[C@H]1[C@H](c1ccc(OC)c(OC)c1)[C@H]2c1cc(OC)cc(=O)o1 (relative stereo) | 120
57 | COc1cc(/C=C/c2ccccc2)oc(=O)c1 [DESMETHOXYYANGONIN] | 160
58 | COc1cc(CCc2ccccc2)oc(=O)c1 [DIHYDRO-5,6-DEHYDROKAWAIN] | 290
59 | COc1cc([C@@H]2c3cc4c(cc3[C@H](O)[C@H]3COC(=O)[C@H]23)OCO4)cc(OC)c1OC [PODOFILOX] | 0.01

tested on: not listed separately; test: Selectivity index, ratio of IC50 for erythrocytic stages chloroquine and pyrimethamine-resistant Plasmodium falciparum K1 to IC50 for rat L6 myoblasts; parameters: reference not given here; settings: not given

Row | Compound | Ratio IC50
60 | COc1cc(CCc2cccc(Oc3ccc(C(C)(C)C)cc3)c2)oc(=O)c1 | 7
61 | COc1cc(CCc2ccc3ccccc3c2)oc(=O)c1 | 6
62 | COc1cc(CCc2ccc(CCc3cc(OC)cc(=O)o3)cc2)oc(=O)c1 | 14
63 | COc1cc(=O)oc([C@H]2[C@H](c3ccc(OC)c(OC)c3)[C@H](c3cc(OC)cc(=O)o3)[C@H]2c2ccc(OC)c(OC)c2)c1 | 7
64 | COc1cc(=O)oc([C@H]2[C@H](c3ccc4ccccc4c3)[C@H](c3cc(OC)cc(=O)o3)[C@H]2c2ccc3ccccc3c2)c1 | 42
65 | COc1cc([C@@H]2[C@@H](c3ccccc3)[C@@H](c3ccccc3)[C@@H]2c2cc(OC)cc(=O)o2)oc(=O)c1 | 13
66 | COC1=CC(=O)O[C@]2(/C=C/c3ccc(C(C)(C)C)cc3)[C@H]1[C@H](c1ccc(C(C)(C)C)cc1)[C@H]2c1cc(OC)cc(=O)o1 (racemic) | 76
67 | COC1=CC(=O)O[C@]2(/C=C/c3cccc(Oc4ccc(C(C)(C)C)cc4)c3)[C@H]1[C@H](c1cccc(Oc3ccc(C(C)(C)C)cc3)c1)[C@H]2c1cc(OC)cc(=O)o1 (racemic) | >27
68 | COC1=CC(=O)O[C@]2(/C=C/c3ccccc3)[C@H]1[C@H](c1ccccc1)[C@H]2c1cc(OC)cc(=O)o1 (relative stereo) | >28
69 | COC1=CC(=O)O[C@]2(/C=C/c3ccc(OC)c(OC)c3)[C@H]1[C@H](c1ccc(OC)c(OC)c1)[C@H]2c1cc(OC)cc(=O)o1 (relative stereo) | 80
70 | COc1cc(/C=C/c2ccccc2)oc(=O)c1 [DESMETHOXYYANGONIN] | 12

tested on: Trypanosoma brucei rhodesiense; test: Antiprotozoal activity against Trypanosoma brucei rhodesiense STIB900 trypomastigotes after 72 hrs by alamar blue assay; assay type: functional, organism-based; settings: STIB900, 72 h

Row | Compound | IC50 [µM]
71 | COc1cc(CCc2ccc(OC)c(OC)c2)oc(=O)c1 | 200
72 | COc1cc(CCc2cccc(Oc3ccc(C(C)(C)C)cc3)c2)oc(=O)c1 | 65
73 | COc1cc(CCc2cccc3ccccc23)oc(=O)c1 | 85
74 | COc1cc(CCc2ccc3ccccc3c2)oc(=O)c1 | 72
75 | COc1cc(CCc2ccc(CCc3cc(OC)cc(=O)o3)cc2)oc(=O)c1 | 200
76 | COc1cc(=O)oc([C@H]2[C@H](c3ccc(OC)c(OC)c3)[C@H](c3cc(OC)cc(=O)o3)[C@H]2c2ccc(OC)c(OC)c2)c1 | 6.2
77 | COc1cc(=O)oc([C@H]2[C@H](c3ccc4ccccc4c3)[C@H](c3cc(OC)cc(=O)o3)[C@H]2c2ccc3ccccc3c2)c1 | 4.9
78 | COc1cc([C@@H]2[C@@H](c3ccccc3)[C@@H](c3ccccc3)[C@@H]2c2cc(OC)cc(=O)o2)oc(=O)c1 | 15
79 | COC1=CC(=O)O[C@]2(/C=C/c3ccc(C(C)(C)C)cc3)[C@H]1[C@H](c1ccc(C(C)(C)C)cc1)[C@H]2c1cc(OC)cc(=O)o1 (racemic) | 21
80 | COC1=CC(=O)O[C@]2(/C=C/c3cccc(Oc4ccc(C(C)(C)C)cc4)c3)[C@H]1[C@H](c1cccc(Oc3ccc(C(C)(C)C)cc3)c1)[C@H]2c1cc(OC)cc(=O)o1 (racemic) | > 120
81 | COC1=CC(=O)O[C@]2(/C=C/c3ccccc3)[C@H]1[C@H](c1ccccc1)[C@H]2c1cc(OC)cc(=O)o1 (relative stereo) | 13
82 | COC1=CC(=O)O[C@]2(/C=C/c3ccc(OC)c(OC)c3)[C@H]1[C@H](c1ccc(OC)c(OC)c1)[C@H]2c1cc(OC)cc(=O)o1 (relative stereo) | 61
83 | COc1cc(/C=C/c2ccccc2)oc(=O)c1 [DESMETHOXYYANGONIN] | 120
